Measured values published in US10807952B2 (Achillion Pharmaceuticals, Inc., priority 2015, dated 2020).
Each block holds one compound with its values, some of them ahead of it.

Molecular target: Human Factor D (Homo sapiens (Human), UniProt P00746)
Experiment: Human Factor D assay (Z-L-Lys-SBzl / DTNB, absorbance at 405 nm)
Format: biochemical
Conditions: Table 3; Human Factor D 80 nM, assay of Example 13
Protocol: Human Factor D (purified from human serum, Complement Technology, Inc.) at 80 nM final concentration was incubated with test compound at various concentrations for 5 minutes at room temperature in 50 mM Tris, 1M NaCl, pH 7.5. A synthetic substrate Z-L-Lys-SBzl and DTNB (Ellman's reagent) were added to final concentrations of 100 μM each. […] IC50 values were calculated by nonlinear regression of complement Factor D reaction rates as a function of test compound concentration.

Sequence of Human Factor D (P00746 26-253): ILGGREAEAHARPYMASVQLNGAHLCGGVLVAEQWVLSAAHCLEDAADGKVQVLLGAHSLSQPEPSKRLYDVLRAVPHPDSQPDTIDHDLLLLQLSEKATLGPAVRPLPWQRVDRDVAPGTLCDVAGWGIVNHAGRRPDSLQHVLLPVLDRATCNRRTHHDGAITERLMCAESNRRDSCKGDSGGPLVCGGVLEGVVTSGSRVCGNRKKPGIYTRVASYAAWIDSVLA

SMILES: CC(=O)c1cn(CC(=O)N2C[C@H](F)C[C@H]2C(=O)Nc2cccc(-c3ccc4[nH]cnc4c3Cl)c2F)c2ccccc12 [Compound 2, (2S,4R)-1-(2-(3-acetyl-1H-indol-1-yl)acetyl)-N-(3-(4-chloro-1H-benzo[d]imidazol-5-yl)-2-fluorophenyl)-4-fluoropyrrolidine-2-carboxamide]
- IC50: < 1000 nM

SMILES: CC(=O)c1nn(CC(=O)N2C[C@H](F)C[C@H]2C(=O)Nc2cccc(-c3ccc4[nH]cnc4c3Cl)c2F)c2ccccc12 [Compound 3, (2S,4R)-1-(2-(3-acetyl-1H-indazol-1-yl)acetyl)-N-(3-(4-chloro-1H-benzo[d]imidazol-5-yl)-2-fluorophenyl)-4-fluoropyrrolidine-2-carboxamide]
- IC50: < 1000 nM

SMILES: CC(=O)c1nn(CC(=O)N2[C@@H]3C[C@@H]3C[C@H]2C(=O)Nc2cccc(-c3ccc4[nH]cnc4c3Cl)c2F)c2ccccc12 [Compound 5, (1R,3S,5R)-2-(2-(3-acetyl-1H-indazol-1-yl)acetyl)-N-(3-(4-chloro-1H-benzo[d]imidazol-5-yl)-2-fluorophenyl)-2-azabicyclo[3.1.0]hexane-3-carboxamide]
- IC50: < 1000 nM

SMILES: NC(=O)c1nn(CC(=O)N2C[C@H](F)C[C@H]2C(=O)Nc2cccc(-c3ccc4[nH]cnc4c3)c2F)c2ccccc12 [Compound 6, 1-(2-((2S,4R)-2-(3-(1H-benzo[d]imidazol-5-yl)-2-fluorophenyl-carbamoyl)-4-fluoropyrrolidin-1-yl)-2-oxoethyl)-1H-indazole-3-carboxamide]
- IC50: < 1000 nM

SMILES: CC(=O)c1cn(CC(=O)N[C@H](C(=O)Nc2cccc(-c3ccccc3Cl)c2F)[C@@H](C)O)c2ccccc12 [Compound 7, (2S,3R)-2-(2-(3-Acetyl-1H-indol-1-yl)acetamido)-N-(2′-chloro-2-fluorobiphenyl-3-yl)-3-hydroxybutanamide]
- IC50: < 1000 nM

SMILES: CO/N=C(\C)c1ccc(Cl)c(-c2cccc(NC(=O)[C@@H]3C[C@@H](F)CN3C(=O)Cn3nc(C(N)=O)c4ccccc43)c2F)c1 [Compound 8, 1-(2-((2S,4R)-2-((2′-Chloro-2-fluoro-5′-((E)-1-(methoxyimino)ethyl)-[1,1′-biphenyl]-3-yl)carbamoyl)-4-fluoropyrrolidin-1-yl)-2-oxoethyl)-1H-indazole-3-carboxamide]
- IC50: < 1000 nM

SMILES: NC(=O)c1nn(CC(=O)N2C[C@H](F)C[C@H]2C(=O)Nc2cccc(-c3ccc4[nH]c(C(F)(F)F)nc4c3Cl)c2F)c2ccccc12 [Compound 9, 1-(2-((2S,4R)-2-(3-(4-chloro-2-(trifluoromethyl)-1H-benzo[d]imidazol-5-yl)-2-fluorophenyl-carbamoyl)-4-fluoropyrrolidin-1-yl)-2-oxoethyl)-1H-indazole-3-carboxamide]
- IC50: < 1000 nM

SMILES: Cc1nc2cc(-c3cccc(NC(=O)[C@@H]4C[C@@H](F)CN4C(=O)Cn4nc(C(N)=O)c5ccccc54)c3F)ccc2[nH]1 [Compound 10]
- IC50: < 1000 nM

SMILES: NC(=O)c1nn(CC(=O)N2C[C@H](F)C[C@H]2C(=O)Nc2cccc(-c3ccc4[nH]c(=O)[nH]c4c3Cl)c2F)c2ccccc12 [Compound 11, 1-(2-((2S,4R)-2-((3-(4-Chloro-2-oxo-2,3-dihydro-1H-benzo[d]imidazol-5-yl)-2-fluorophenyl)carbamoyl)-4-fluoropyrrolidin-1-yl)-2-oxoethyl)-1H-indazole-3-carboxamide]
- IC50: < 1000 nM

SMILES: Cc1nc2c(Cl)c(-c3cccc(NC(=O)[C@@H]4C[C@@H](F)CN4C(=O)Cn4nc(C(N)=O)c5ccccc54)c3F)ccc2[nH]1 [Compound 12, 1-(2-((2S,4R)-2-(3-(4-chloro-2-methyl-1H-benzo[d]imidazol-5-yl)-2-fluorophenyl-carbamoyl)-4-fluoropyrrolidin-1-yl)-2-oxoethyl)-1H-indazole-3-carboxamide]
- IC50: < 1000 nM

SMILES: N#Cc1n[nH]c2ccc(-c3cccc(NC(=O)[C@@H]4C[C@@H](F)CN4C(=O)Cn4nc(C(N)=O)c5ccccc54)c3F)cc12 [Compound 13, 1-(2-((2S,4R)-2-(3-(3-cyano-1H-indazol-5-yl)-2-fluorophenyl-carbamoyl)-4-fluoropyrrolidin-1-yl)-2-oxoethyl)-1H-indazole-3-carboxamide]
- IC50: < 1000 nM

SMILES: C[C@H](O)c1nc2c(Cl)c(-c3cccc(NC(=O)[C@@H]4C[C@@H](F)CN4C(=O)Cn4nc(C(N)=O)c5ccccc54)c3F)ccc2[nH]1 [Compound 14, 1-(2-((2S,4R)-2-((3-(7-Chloro-2-((S)-1-hydroxyethyl)-1H-benzo[d]imidazol-6-yl)-2-fluorophenyl)carbamoyl)-4-fluoropyrrolidin-1-yl)-2-oxoethyl)-1H-indazole-3-carboxamide]
- IC50: < 1000 nM

SMILES: CC(=O)c1cn(CC(=O)N(C)[C@H](C(=O)Nc2cccc(-c3ccccc3Cl)c2F)[C@@H](C)O)c2ccccc12 [Compound 15, (2S,3R)-2-(2-(3-acetyl-1H-indol-1-yl)-N-methylacetamido)-N-(2′-chloro-2-fluorobiphenyl-3-yl)-3-hydroxybutanamide]
- IC50: 1000 to 10000 nM

SMILES: CC(=O)c1cn(CC(=O)N[C@H](C(=O)Nc2cccc(Br)n2)[C@@H](C)O)c2ccccc12 [Compound 16, (2S,3R)-2-(2-(3-acetyl-1H-indol-1-yl)acetamido)-N-(6-bromopyridin-2-yl)-3-hydroxybutanamide]
- IC50: 1000 to 10000 nM

SMILES: NC(=O)c1nn(CC(=O)N2C[C@H](F)C[C@H]2C(=O)Nc2cccc(-c3ccc4[nH]ncc4c3Cl)c2F)c2ccccc12 [Compound 17, 1-(2-((2S,4R)-2-(3-(4-chloro-1H-indazol-5-yl)-2-fluorophenyl-carbamoyl)-4-fluoropyrrolidin-1-yl)-2-oxoethyl)-1H-indazole-3-carboxamide]
- IC50: < 1000 nM

SMILES: CC(=O)c1nc2ccc(-c3cccc(NC(=O)[C@@H]4C[C@@H](F)CN4C(=O)Cn4nc(C(N)=O)c5ccccc54)c3F)c(Cl)c2[nH]1 [Compound 18, 1-(2-((2S,4R)-2-(3-(2-acetyl-7-chloro-1H-benzo[d]imidazol-6-yl)-2-fluorophenyl-carbamoyl)-4-fluoropyrrolidin-1-yl)-2-oxoethyl)-1H-indazole-3-carboxamide]
- IC50: < 1000 nM

- IC50: < 1000 nM
SMILES: NC(=O)c1nn(CC(=O)N2C[C@H](F)C[C@H]2C(=O)Nc2cccc(-c3ccccc3Cl)c2F)c2cc(Cn3cc(C4CC4)nn3)sc12 [Compound 19, 1-(2-((2S,4R)-2-((2′-Chloro-2-fluoro-[1,1′-biphenyl]-3-yl)carbamoyl)-4-fluoropyrrolidin-1-yl)-2-oxoethyl)-5-((4-cyclopropyl-1H-1,2,3-triazol-1-yl)methyl)-1H-thieno[3,2-c]pyrazole-3-carboxamide]

SMILES: Cn1cnc2c(Cl)c(-c3cccc(NC(=O)[C@@H]4C[C@@H](F)CN4C(=O)Cn4nc(C(N)=O)c5ccccc54)c3F)ccc21 [Compound 20, 1-(2-((2S,4R)-2-(3-(4-chloro-1-methyl-1H-benzo[d]imidazol-5-yl)-2-fluorophenyl-carbamoyl)-4-fluoropyrrolidin-1-yl)-2-oxoethyl)-1H-indazole-3-carboxamide]
- IC50: < 1000 nM

- IC50: < 1000 nM
SMILES: NC(=O)c1cccc(CC(=O)N2C[C@H](F)C[C@H]2C(=O)Nc2cccc(-c3ccccc3Cl)c2F)c1 [Compound 21, (2S,4R)-1-(2-(3-carbamoylphenyl)acetyl)-N-(2′-chloro-2-fluorobiphenyl-3-yl)-4-fluoropyrrolidine-2-carboxamide]

- IC50: 1000 to 10000 nM
SMILES: NC(=O)c1cc(CC(=O)N2C[C@H](F)C[C@H]2C(=O)Nc2cccc(-c3ccccc3Cl)c2F)ccc1Cl [Compound 22, (2S,4R)-1-(2-(3-carbamoyl-4-chlorophenyl)acetyl)-N-(2′-chloro-2-fluorobiphenyl-3-yl)-4-fluoropyrrolidine-2-carboxamide]

- IC50: 1000 to 10000 nM
SMILES: N#Cc1cc(CC(=O)N2C[C@H](F)C[C@H]2C(=O)Nc2cccc(-c3ccccc3Cl)c2F)ccc1Cl [Compound 23, (2S,4R)-N-(2′-chloro-2-fluorobiphenyl-3-yl)-1-(2-(4-chloro-3-cyanophenyl)acetyl)-4-fluoropyrrolidine-2-carboxamide]

SMILES: N#Cc1cccc(CC(=O)N2C[C@H](F)C[C@H]2C(=O)Nc2cccc(-c3ccccc3Cl)c2F)c1 [Compound 24, (2S,4R)-N-(2′-chloro-2-fluorobiphenyl-3-yl)-1-(2-(3-cyanophenyl)acetyl)-4-fluoropyrrolidine-2-carboxamide]
- IC50: < 1000 nM

SMILES: NC(=O)c1nn(CC(=O)N2C[C@H](F)C[C@H]2C(=O)Nc2cccc(-c3ccc4cc[nH]c4c3)c2F)c2ccccc12 [Compound 25, 1-(2-((2S,4R)-4-fluoro-2-(2-fluoro-3-(1H-indol-6-yl)phenylcarbamoyl)pyrrolidin-1-yl)-2-oxoethyl)-1H-indazole-3-carboxamide]
- IC50: < 1000 nM

SMILES: NC(=O)c1nn(CC(=O)N2C[C@H](F)C[C@H]2C(=O)Nc2cccc(-c3ccc4nc(N)[nH]c4c3Cl)c2F)c2ccccc12 [Compound 26, 1-(2-((2S,4R)-2-(3-(2-amino-7-chloro-1H-benzo[d]imidazol-6-yl)-2-fluorophenyl-carbamoyl)-4-fluoropyrrolidin-1-yl)-2-oxoethyl)-1H-indazole-3-carboxamide]
- IC50: < 1000 nM

SMILES: NC(=O)c1nn(CC(=O)N2C[C@H](F)C[C@H]2C(=O)Nc2cccc(-c3ccc4cn[nH]c4c3)c2F)c2ccccc12 [Compound 28, 1-(2-((2S,4R)-4-fluoro-2-(2-fluoro-3-(1H-indazol-6-yl)phenylcarbamoyl)pyrrolidin-1-yl)-2-oxoethyl)-1H-indazole-3-carboxamide]
- IC50: < 1000 nM

- IC50: < 1000 nM
SMILES: NC(=O)c1nn(CC(=O)N2C[C@H](F)C[C@H]2C(=O)Nc2cccc(Br)n2)c2cc(Cn3cc(C4CC4)nn3)sc12 [Compound 29, 1-(2-((2S,4R)-2-(6-bromopyridin-2-ylcarbamoyl)-4-fluoropyrrolidin-1-yl)-2-oxoethyl)-5-((4-cyclopropyl-1H-1,2,3-triazol-1-yl)methyl)-1H-thieno[3,2-c]pyrazole-3-carboxamide]
